Where two headings read alike, the source gives them in different places.
What was measured:
[1] = system: TGF-β signaling (p-SMAD-3 (Ser423/425)); assay: AlphaScreen SureFire SMAD3 (p-Ser423/425) assay, TGF-β-stimulated cells (TGF-β pSMAD (MPC-11)); type: cell-based; details: pSMAD3 readout, read-out: TGF-β (inhibition of TGF-β signaling
[2] = system: GDF8 signaling (p-SMAD-3 (Ser423/425)); assay: AlphaScreen SureFire SMAD3 (p-Ser423/425) assay, GDF8-stimulated cells (GDF pSMAD (MPC11)); type: cell-based; details: pSMAD3 readout, read-out: GDF8 (inhibition of GDF8 signaling
[3] = molecular target: HIS-TGF-βR1 T204D (Homo sapiens (Human), UniProt P36897, T204D); assay: HTRF probe displacement assay with HIS-TGF-βR1 T204D
Chain of HIS-TGF-βR1 T204D (P36897 34-503 T204D): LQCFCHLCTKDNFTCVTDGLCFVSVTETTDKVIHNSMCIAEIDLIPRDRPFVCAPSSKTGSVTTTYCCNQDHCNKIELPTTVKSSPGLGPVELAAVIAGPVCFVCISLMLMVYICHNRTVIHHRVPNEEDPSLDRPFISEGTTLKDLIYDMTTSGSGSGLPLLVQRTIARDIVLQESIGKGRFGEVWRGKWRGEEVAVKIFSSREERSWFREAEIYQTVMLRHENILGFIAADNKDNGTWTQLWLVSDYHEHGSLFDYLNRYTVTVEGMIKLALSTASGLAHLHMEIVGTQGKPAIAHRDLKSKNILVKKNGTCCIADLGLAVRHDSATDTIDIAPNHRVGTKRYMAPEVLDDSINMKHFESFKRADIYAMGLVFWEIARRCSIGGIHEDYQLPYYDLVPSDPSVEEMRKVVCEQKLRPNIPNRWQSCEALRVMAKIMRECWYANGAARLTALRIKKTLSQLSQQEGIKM

[4] = molecular target: HIS-TGF-βR2 WT (Homo sapiens (Human), UniProt P37173); assay: HTRF probe displacement assay with HIS-TGF-βR2 WT
Chain of HIS-TGF-βR2 WT (P37173 23-567): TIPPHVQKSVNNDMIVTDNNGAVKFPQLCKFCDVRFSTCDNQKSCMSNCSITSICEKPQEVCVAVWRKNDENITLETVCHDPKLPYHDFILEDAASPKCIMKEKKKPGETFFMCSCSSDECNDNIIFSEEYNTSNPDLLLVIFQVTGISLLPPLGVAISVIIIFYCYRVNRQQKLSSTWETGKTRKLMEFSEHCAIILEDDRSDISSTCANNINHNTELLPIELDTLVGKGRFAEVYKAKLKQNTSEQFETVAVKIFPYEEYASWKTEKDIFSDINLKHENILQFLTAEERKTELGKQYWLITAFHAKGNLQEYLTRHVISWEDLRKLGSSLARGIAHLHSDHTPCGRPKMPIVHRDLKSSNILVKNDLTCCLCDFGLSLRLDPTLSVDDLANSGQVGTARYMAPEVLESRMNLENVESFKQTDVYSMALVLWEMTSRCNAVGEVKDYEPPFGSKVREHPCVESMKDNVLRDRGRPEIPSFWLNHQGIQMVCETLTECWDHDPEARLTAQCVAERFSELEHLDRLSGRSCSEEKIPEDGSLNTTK

[5] = read-out: TGFbr1 IC50, HTRF probe displacement, 1 nM HIS-TGF-βR1 T204D, 1 hour at room temperature
[6] = read-out: TGFBr2 IC50, HTRF probe displacement, 1 nM HIS-TGF-βR2 WT, 1 hour at room temperature

Compound	IC50 [3, 5]	IC50 [4, 6]	also measured
CCc1nc(-c2cc(C)cc(F)c2)c(-c2ccc3[nH]ncc3c2)[nH]1 [Compound 142, 5-(2-Ethyl-4-(3-fluoro-5-methylphenyl)-1H-imidazol-5-yl)-1H-indazole]			IC50 [1]: 4390 nM; IC50 [2]: 670 nM
5-(benzo[d]thiazol-6-yl)-4-(3-chlorophenyl)thiazol-2-amine [Compound 166]			IC50 [2]: 70.2 nM
Cc1cc(-c2ncn(C)c2-c2ccc3cn[nH]c3c2)ccc1F [Compound 7, 6-(4-(4-Fluoro-3-methylphenyl)-1-methyl-1H-imidazol-5-yl)-1H-indazole]			IC50 [1]: 150 nM; IC50 [2]: 40 nM
N#Cc1cnc2ccc(-c3c(-c4ccccc4C(F)(F)F)ncn3CC(F)F)nn12 [246′, 6-(1-(2,2-difluoroethyl)-4-(2-(trifluoromethyl)phenyl)-1H-imidazol-5-yl)imidazo[1,2-b]pyridazine-3-carbonitrile]	144 nM	> 15000 nM	
N#Cc1cnc2ccc(-c3c(-c4ccc(F)cc4)ncn3C3CN(C(=O)C4CC4)C3)nn12 [Example 192′, 6-(1-(1-(cyclopropanecarbonyl)azetidin-3-yl)-4-(4-fluorophenyl)-1H-imidazol-5-yl)imidazo[1,2-b]pyridazine-3-carbonitrile]	229 nM	> 15000 nM	
CS(=O)(=O)Nc1ccccc1-c1ncn(CC(F)F)c1-c1ccc2ncc(C#N)n2n1 [239′, N-(2-(5-(3-cyanoimidazo[1,2-b]pyridazin-6-yl)-1-(2,2-difluoroethyl)-1H-imidazol-4-yl)phenyl)methanesulfonamide]	521 nM	> 15000 nM	
Cc1cc(-c2ncn(C)c2-c2ccc3cn[nH]c3c2)ccc1F [Compound 5, 6-(4-(4-Fluoro-3-methylphenyl)-1-methyl-1H-imidazol-5-yl)-1H-indazole]			IC50 [1]: 20 nM; IC50 [2]: 10 nM
COC(=O)Nc1cnc2ccc(-c3c(-c4ccc(F)cc4)ncn3CC(F)F)cn12 [Example 284′, methyl (6-(1-(2,2-difluoroethyl)-4-(4-fluorophenyl)-1H-imidazol-5-yl)imidazo[1,2-a]pyridin-3-yl)carbamate]	426 nM	> 15000 nM	
COCC(C1CC1)n1cnc(-c2ccc(F)cc2)c1-c1ccc2ncc(C#N)n2n1 (centres unmarked) [16′, 6-(1-(1-cyclopropyl-2-methoxyethyl)-4-(4-fluorophenyl)-1H-imidazol-5-yl)imidazo[1,2-b]pyridazine-3-carbonitrile]			IC50 [3]: 2.3 nM; IC50 [4]: > 15000 nM
COC(=O)N1CC(n2cnc(-c3ccc(F)cc3)c2-c2ccc3ncc(C#N)n3n2)C1 [Example 190′, methyl 3-(5-(3-cyanoimidazo[1,2-b]pyridazin-6-yl)-4-(4-fluorophenyl)-1H-imidazol-1-yl)azetidine-1-carboxylate]	52.7 nM	> 15000 nM	
NC(=O)c1cnc2ccc(-c3c(-c4ccc(F)cc4)nc4n3CCN(CC(F)F)C4)cn12 [Example 294′, 6-(7-(2,2-difluoroethyl)-2-(4-fluorophenyl)-5,6,7,8-tetrahydroimidazo[1,2-a]pyrazin-3-yl)imidazo[1,2-a]pyridine-3-carboxamide]	27.2 nM	> 15000 nM	
N#Cc1cnc2ccc(-c3c(-c4ccc(C(F)(F)F)cc4)ncn3CC(F)F)nn12 [244′, 6-(1-(2,2-difluoroethyl)-4-(4-(trifluoromethyl)phenyl)-1H-imidazol-5-yl)imidazo[1,2-b]pyridazine-3-carbonitrile]	546 nM	> 15000 nM	

More lines, main results first:

IC50 [3, 5]	IC50 [4, 6]	Compound	also measured
5.3 nM	> 15000 nM	O=C(NCc1cnc2ccc(-c3c(-c4ccc(F)cc4)ncn3CC(F)F)nn12)C1CC1 [Example 198′, N-((6-(1-(2,2-difluoroethyl)-4-(4-fluorophenyl)-1H-imidazol-5-yl)imidazo[1,2-b]pyridazin-3-yl)methyl)cyclopropanecarboxamide]	
12 nM	> 15000 nM	COC(=O)NCc1cnc2ccc(-c3c(-c4ccc(F)cc4)ncn3CC(F)F)nn12 [Example 200′, methyl ((6-(1-(2,2-difluoroethyl)-4-(4-fluorophenyl)-1H-imidazol-5-yl)imidazo[1,2-b]pyridazin-3-yl)methyl)carbamate]	
1 nM	> 15000 nM	N#Cc1cnc2ccc(-c3c(-c4cccc(OC(F)(F)F)c4)ncn3CC(F)F)nn12 [259′, 6-(1-(2,2-difluoroethyl)-4-(3-(trifluoromethoxy)phenyl)-1H-imidazol-5-yl)imidazo[1,2-b]pyridazine-3-carbonitrile]	
6.4 nM	> 15000 nM	N#Cc1cnc2ccc(-c3c(-c4ccc(F)cc4)ncn3[C@H](CO)CC(F)(F)F)nn12 [29′, (S)-6-(4-(4-fluorophenyl)-1-(4,4,4-trifluoro-1-hydroxybutan-2-yl)-1H-imidazol-5-yl)imidazo[1,2-b]pyridazine-3-carbonitrile]	
17.9 nM	> 15000 nM	N#Cc1cnc2ccc(-c3c(-c4ccc(F)cc4)ncn3C3CCC(F)(F)CC3)nn12 [8′, 6-(1-(4,4-difluorocyclohexyl)-4-(4-fluorophenyl)-1H-imidazol-5-yl)imidazo[1,2-b]pyridazine-3-carbonitrile]	
1.8 nM	> 15000 nM	NC(=O)c1cnc2ccc(-c3c(-c4ccc(F)c(Cl)c4)ncn3C(CO)CO)cn12 [122′, 6-(4-(3-chloro-4-fluorophenyl)-1-(1,3-dihydroxypropan-2-yl)-1H-imidazol-5-yl)imidazo[1,2-a]pyridine-3-carboxamide]	
3.7 nM	> 15000 nM	NC(=O)c1cnc2ccc(-c3c(-c4ccc(F)cc4)ncn3C3CC(F)(F)C3)cn12 [180′, 6-(1-(3,3-difluorocyclobutyl)-4-(4-fluorophenyl)-1H-imidazol-5-yl)imidazo[1,2-a]pyridine-3-carboxamide]	
21.3 nM	> 15000 nM	NC(=O)c1cnc2ccc(-c3c(-c4ccc(F)cc4)ncn3CC(O)C(F)(F)F)cn12 (centres unmarked) [169′, 6-(4-(4-fluorophenyl)-1-(3,3,3-trifluoro-2-hydroxypropyl)-1H-imidazol-5-yl)imidazo[1,2-a]pyridine-3-carboxamide]	
20.5 nM	> 15000 nM	NC(=O)c1cnc2ccc(-c3c(-c4ccc(F)cc4)ncn3C3CCC(F)(F)CC3)nn12 [110′, 6-(1-(4,4-difluorocyclohexyl)-4-(4-fluorophenyl)-1H-imidazol-5-yl)imidazo[1,2-b]pyridazine-3-carboxamide]	

Source: US9884868B2, “TGF-beta inhibitors” (Rigel Pharmaceuticals, Inc., priority 2015, dated 2018)
